We go through 12 compounds from patent US8039493B2, “Biaryl sulfonamide derivatives” (Hoffmann-La Roche Inc., priority 2008, dated 2011).

Each structure is given as a SMILES string.

One assay concerns the target T1, human LXR beta (Homo sapiens, UniProt P55055).
T1 construct: human LXR beta (aa 155 to 460); made in house; host or cells: E. coli BL21 (pLysS)
T1 sequence (P55055 155-460): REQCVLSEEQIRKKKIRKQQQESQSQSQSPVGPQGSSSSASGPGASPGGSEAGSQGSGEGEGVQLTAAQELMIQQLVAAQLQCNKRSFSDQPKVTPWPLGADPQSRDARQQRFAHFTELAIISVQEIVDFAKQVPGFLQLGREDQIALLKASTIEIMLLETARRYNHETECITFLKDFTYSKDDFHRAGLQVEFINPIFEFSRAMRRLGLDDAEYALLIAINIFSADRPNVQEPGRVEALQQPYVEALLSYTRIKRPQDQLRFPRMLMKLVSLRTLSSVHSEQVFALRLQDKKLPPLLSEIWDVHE
Nature of the assay: Radioligand binding assay (scintillation proximity), LXR beta-LBD. Conditions: LXR beta-LBD on SPA beads, read-out: LXRbeta Binding IC50. Here is the method:
(§1) The following tests were carried out in order to determine the activity of the compounds of the present invention. […] Mammalian expression vectors were constructed to express full-length human LXR alpha and LXR beta. […] To accomplish this, the portions of the sequences encoding the LBDs were amplified from the full-length clones by PCR and then subcloned into the plasmid vectors.
(§2) Induction, expression, and purification of LBD proteins were performed in E. coli strain BL21 (pLysS) cells by standard methods (Ref: Current Protocols in Molecular Biology, Wiley Press, edited by Ausubel et al).
(§3) Radioligand Binding Assay
(§4) LXR alpha and LXR beta receptor binding were assayed in buffer consisting of 50 mM HEPES, pH 7.4, 10 mM NaCl, 5 mM MgCl2. For each 96-well reaction, 500 ng of LXRα-LBD or 700 ng of LXR beta-LBD proteins were bound to 80 μg or 40 μg SPA beads respectively, in a final volume of 50 μl by shaking. The resulting slurry was incubated for 1 h at RT and centrifuged for 2 min at 1300×g. The supernatant containing unbound protein was removed, and the semi-dry pellet containing the receptor-coated beads was re-suspended in 50 μl of buffer. Radioligand (eg. 100,000 dpm of (N-(2,2,2-trifluoroethyl)-N-[4-(2,2,2-trifluoro-1-hydroxy-1-trifluoromethylethyl)-phenyl]-benzenesulfonamide)) was added, and the reaction incubated at RT for 1 h in the presence of test compounds, and then scintillation proximity counting was performed. All binding assays were performed in 96-well plates and the amount of bound ligand was measured on a Packard TopCount using OptiPlates (Packard). Dose response curves were measured within a range of concentration from 10^−10 M to 10^−4 M.

In another assay the target is T2, human LXR alpha (Homo sapiens, UniProt Q13133).
T2 construct: human LXR alpha (aa 164 to 447); made in house; host or cells: E. coli BL21 (pLysS)
T2 sequence (Q13133 164-447): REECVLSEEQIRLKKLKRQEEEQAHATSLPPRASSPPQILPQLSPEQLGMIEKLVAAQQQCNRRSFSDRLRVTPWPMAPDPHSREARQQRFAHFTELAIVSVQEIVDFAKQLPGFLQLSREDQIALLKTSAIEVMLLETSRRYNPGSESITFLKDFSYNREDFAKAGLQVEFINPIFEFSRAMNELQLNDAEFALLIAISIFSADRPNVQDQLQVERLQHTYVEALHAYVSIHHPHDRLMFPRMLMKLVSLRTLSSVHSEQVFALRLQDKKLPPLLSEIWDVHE
In words: Radioligand binding assay (scintillation proximity), LXRα-LBD. Conditions: LXRα-LBD on SPA beads, read-out: LXRalpha Binding IC50. Here is the method:
as §1, §2, §3, §4

As for `CS(=O)(=O)c1cccc(-c2ccc(CN(Cc3ccccc3)S(=O)(=O)c3ccccc3C(F)(F)F)s2)c1` [Example 1, N-Benzyl-N-[5-(3-methanesulfonyl-phenyl)-thiophen-2-ylmethyl]-2-trifluoromethyl-benzenesulfonamide], the IC50 (usually the concentration that gives 50% inhibition) on human LXR beta turned out to be 165 nM; on human LXR alpha it was 205 nM.

As for `CS(=O)(=O)Nc1cccc(-c2ccc(CN(Cc3ccccc3)S(=O)(=O)c3ccccc3C(F)(F)F)s2)c1` [Example 2, N-Benzyl-N-[5-(3-methanesulfonylamino-phenyl)-thiophen-2-ylmethyl]-2-trifluoromethyl-benzenesulfonamide], the IC50 worked out at 126 nM at human LXR beta and 170 nM on human LXR alpha.

As to `CS(=O)(=O)c1cccc(-c2nnc(CN(Cc3ccccc3)S(=O)(=O)c3ccccc3C(F)(F)F)o2)c1` [Example 3, N-Benzyl-N-[5-(3-methanesulfonyl-phenyl)-[1,3,4]oxadiazol-2-ylmethyl]-2-trifluoromethyl-benzenesulfonamide], the half-inhibitory concentration (IC50) at human LXR beta stood at 5410 nM; at human LXR alpha, 5720 nM.

With `CS(=O)(=O)c1cccc(-c2ccc(CN(Cc3ccccc3)S(=O)(=O)c3ccccc3Cl)s2)c1` [Example 4, N-Benzyl-2-chloro-N-[5-(3-methanesulfonyl-phenyl)-thiophen-2-ylmethyl]-benzenesulfonamide], the 50% inhibitory concentration (IC50) at human LXR beta worked out at 123 nM; at human LXR alpha, 685 nM.

In the case of `CC(C)CN(Cc1ccc(-c2cccc(S(C)(=O)=O)c2)s1)S(=O)(=O)c1ccccc1Cl` [Example 5, 2-Chloro-N-isobutyl-N-[5-(3-methanesulfonyl-phenyl)-thiophen-2-ylmethyl]-benzenesulfonamide], the half-inhibitory concentration (IC50) on human LXR beta came to 102 nM; at human LXR alpha, 1170 nM.

For the compound `CS(=O)(=O)c1cccc(-c2ccc(CN(C(=O)c3ccccc3)S(=O)(=O)c3ccccc3Cl)s2)c1` [Example 6, N-Benzoyl-2-chloro-N-[5-(3-methanesulfonyl-phenyl)-thiophen-2-ylmethyl]-benzenesulfonamide], the half-inhibitory concentration (IC50) at human LXR beta is 46 nM; on human LXR alpha, 1570 nM.

With `CS(=O)(=O)c1cccc(-c2ccc(CN(Cc3ccccc3)S(=O)(=O)c3cccc(Cl)c3)s2)c1` [Example 7, N-Benzyl-3-chloro-N-[5-(3-methanesulfonyl-phenyl)-thiophen-2-ylmethyl]-benzenesulfonamide], the values for the IC50 at human LXR beta and at human LXR alpha were 1510 nM and 4280 nM, respectively.

Turning to `CC(C)CN(Cc1ccc(-c2cccc(S(C)(=O)=O)c2)s1)S(=O)(=O)c1cccc(Cl)c1` [Example 8, 3-Chloro-N-isobutyl-N-[5-(3-methanesulfonyl-phenyl)-thiophen-2-ylmethyl]-benzenesulfonamide], the IC50 is 560 nM at human LXR beta and 925 nM on human LXR alpha.

As for `CS(=O)(=O)c1cccc(-c2ccc(CN(C(=O)c3ccccc3)S(=O)(=O)c3cccc(Cl)c3)s2)c1` [Example 9, N-Benzoyl-3-chloro-N-[5-(3-methanesulfonyl-phenyl)-thiophen-2-ylmethyl]-benzenesulfonamide], the IC50 on human LXR beta stood at 980 nM; on human LXR alpha, 2140 nM.

As to `CS(=O)(=O)c1cccc(-c2ncc(CN(Cc3ccccc3)S(=O)(=O)c3ccccc3Cl)s2)c1` [Example 10, N-Benzyl-2-chloro-N-[2-(3-methanesulfonyl-phenyl)-thiazol-5-ylmethyl]-benzenesulfonamide], the concentration for half-maximal inhibition (IC50) was determined as 56.5 nM on human LXR beta and 2700 nM at human LXR alpha.

Turning to `CC(C)CN(Cc1cnc(-c2cccc(S(C)(=O)=O)c2)s1)S(=O)(=O)c1ccccc1Cl` [Example 11, 2-Chloro-N-isobutyl-N-[2-(3-methanesulfonyl-phenyl)-thiazol-5-ylmethyl]-benzenesulfonamide], the IC50 was 170 nM at human LXR beta and 8780 nM on human LXR alpha.

Take `CS(=O)(=O)c1cccc(-c2ncc(CN(C(=O)c3ccccc3)S(=O)(=O)c3ccccc3Cl)s2)c1` [Example 12, N-Benzoyl-2-chloro-N-[2-(3-methanesulfonyl-phenyl)-thiazol-5-ylmethyl]-benzenesulfonamide]: the IC50 on human LXR beta came out at 120 nM; at human LXR alpha, 27300 nM.
